Test results taken from patent publication US6579881B2 (Eisai Co., Ltd., priority 1997, dated 2003).

Experiments:
[1] = molecular target: serotonin 2 receptor (Rattus norvegicus, UniProt P14842); assay: Binding test on [3H] ketanserin (serotonin 2 receptor); settings: [3H] ketanserin 0.3 nM, receptor fraction of rat cerebral cortex; read-out: 5HT2
Procedure: (§1) Use was made of SD rats aged 6 to 8 weeks.
(§2) The rats were sacrificed by dcapitation to extirpate the cerebra.
The hippocampus was mixed with 50 times (on the wet weight basis) as much a 0.32 M sucrose solution while the cortex was mixed with 10 times as much the same solution. Each mixture was homogenized by using a Teflon glass homogenizer and centrifuged at 1,000×g for 10 min. The supernatant thus obtained was further centrifuged at 20,000×g for 20 min. The obtained precipitate was re-suspended in 50 times (based on the intial wet weight; in the case of the hippocampus) or 10 times (in the case of the cortex) as much a 50 mM Tris hydrochloride (pH 7.4) and incubated at room temperature for 30 min. After centrifuging at 20,000×g for 20 min, the obtained precipitate was further suspended and centrifuged twice each in the same manner. The precipitate thus obtained was suspended in 100 times (based on the initial wet weight; in the case of the hippocampus) or 20 times (in the case of the cortex) as much a 50 mM Tris hydrochloride solution (pH 7.4) to thereby give a receptor fraction. This receptor fraction was stored at −80° C. until using.
(Binding Test on [^3H] Ketanserin)
Next, it was filtered through a glass filter with the use of a cell harvester. After washing the glass filter with 50 mM Tris hydrochloride (pH 7.4), the radioactivity of the receptor was measured with a liquid scintillation counter. The binding detected in the presence of 1 μM of methysergide was referred to as the nonspecific binding.
(§3) IC50 was calculated by the probit method, while Ki was determined in accordance with the following formula:
(§4) wherein c represents the concentration of the radioisotope-labeled compound, and Kd represents the dissociation constant of the radioisotope-labeled compound with respect to the receptor determined by Scatchard's analysis.

[2] = molecular target: T1, serotonin 1A receptor (Rattus norvegicus, UniProt P19327); assay: Binding test on [3H] 8-hydroxy-dipropylaminotetralin (serotonin 1A receptor); settings: [3H] 8-OH-DPAT 0.5 nM, receptor fraction of rat hippocampus; read-out: 5HT1a
T1 construct: To the receptor fraction of the hippocampus were added a test compound and 0.5 nM of [^3H]; 8-hydroxy-dipropylaminotetralin; from tissue; host or cells: SD rat hippocampus, membrane (receptor) fraction
T1 sequence (P19327 1-422): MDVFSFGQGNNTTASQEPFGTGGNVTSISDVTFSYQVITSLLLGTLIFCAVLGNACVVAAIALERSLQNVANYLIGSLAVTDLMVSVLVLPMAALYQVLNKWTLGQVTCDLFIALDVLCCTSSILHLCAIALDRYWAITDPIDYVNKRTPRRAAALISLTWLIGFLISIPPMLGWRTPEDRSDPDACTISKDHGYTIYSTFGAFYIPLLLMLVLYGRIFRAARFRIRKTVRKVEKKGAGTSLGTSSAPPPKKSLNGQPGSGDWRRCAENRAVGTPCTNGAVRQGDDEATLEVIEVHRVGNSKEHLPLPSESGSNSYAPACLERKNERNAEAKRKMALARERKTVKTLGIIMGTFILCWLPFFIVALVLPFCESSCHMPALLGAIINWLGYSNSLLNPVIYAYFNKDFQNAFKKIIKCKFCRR
Procedure: 3) [^3H] 8-Hydroxy-dipropylaminotetralin (8-OH-DPAT).
as §1, §2
Each mixture was homogenized by using a Teflon glass homogenizer and centrifuged at 1,000×g for 10 min. The supernatant thus obtained was further centrifuged at 20,000×g for 20 min. The obtained precipitate was re-suspended in 50 times (based on the intial wet weight; in the case of the hippocampus) or 10 times (in the case of the cortex) as much a 50 mM Tris hydrochloride (pH 7.4) and incubated at room temperature for 30 min. After centrifuging at 20,000×g for 20 min, the obtained precipitate was further suspended and centrifuged twice each in the same manner. The precipitate thus obtained was suspended in 100 times (based on the initial wet weight; in the case of the hippocampus) or 20 times (in the case of the cortex) as much a 50 mM Tris hydrochloride solution (pH 7.4) to thereby give a receptor fraction. This receptor fraction was stored at −80° C. until using.
(Binding Test on [^3H] 8-hydroxy-dipropylaminotetralin)
To the receptor fraction of the hippocampus were added a test compound and 0.5 nM of [^3H] 8-hydroxy-dipropylaminotetralin and the resultant mixture was incubated at room temperature for 30 min. Next, it was filtered through a glass filter with the use of a cell harvester. After washing the glass filter with 50 mM Tris hydrochloride (pH 7.4), the radioactivity of the receptor was measured with a liquid scintillation counter. The binding detected in the presence of 10 μM of serotonin binoxalate was referred to as the nonspecific binding.
as §3, §4

serotonin 2 receptor, sequence (P14842 whole entry): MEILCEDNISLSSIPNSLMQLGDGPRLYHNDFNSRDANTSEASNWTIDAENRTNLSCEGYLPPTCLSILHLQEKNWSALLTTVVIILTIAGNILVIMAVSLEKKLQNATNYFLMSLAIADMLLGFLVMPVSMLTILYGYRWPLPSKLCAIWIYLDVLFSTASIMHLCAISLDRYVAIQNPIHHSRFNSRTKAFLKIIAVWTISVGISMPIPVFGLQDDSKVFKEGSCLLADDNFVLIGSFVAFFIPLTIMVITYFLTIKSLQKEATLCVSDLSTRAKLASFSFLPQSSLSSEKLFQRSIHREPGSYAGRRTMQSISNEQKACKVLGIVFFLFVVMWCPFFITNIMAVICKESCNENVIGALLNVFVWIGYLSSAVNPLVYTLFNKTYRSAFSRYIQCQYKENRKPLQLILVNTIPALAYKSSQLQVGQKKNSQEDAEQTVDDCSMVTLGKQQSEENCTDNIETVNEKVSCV

Row | SMILES | Ki [1] [nM] | Ki [2] [nM]
1 | Fc1ccc(CCN2CCC(N3CCc4ccc(-c5nccs5)cc43)CC2)cc1 [Example 172, 1-[1-(4-fluorophenethyl)piperidin-4-yl]-6-(2-thiazolyl)indoline] | 52.4 | 0.12
2 | OC(c1ccc2c(c1)N(C1CCN(CCc3ccc(F)cc3)CC1)CC2)c1ccc[nH]1 (stereo not drawn) [Example 199, 1-[1-(4-fluorophenethyl)piperidin-4-yl]-6-[1-hydroxy-1-(2-pyrrolyl)methyl]indoline] | 1.19 | 1.98
3 | COc1ccc2c(c1OC)N(C1CCN(CCc3ccc(F)cc3)CC1)CC2 [Example 108, 1-[1-(4-fluorophenethyl)piperidin-4-yl]-6,7-dimethoxyindoline] | 2.2 | 172
4 | Fc1ccc(CCN2CCC(=C3CCc4cccnc43)CC2)cc1 [Example 256, 7-[1-(4-fluorophenethyl)piperidin-4-ylidene]-5,6-dihydropyrindine] | 12.1 | 0.4
5 | c1ccc2c(c1)CCN2C1CCN(CCc2nccs2)CC1 [Example 60, 1-[1-(2-thiazolylethyl)piperidin-4-yl]indoline] | > 200 | 60.8
6 | Fc1ccc(N2CCC(N3CCc4ccccc43)CC2)cc1 [Example 1, 1-[1-(4-fluorophenyl)piperidin-4-yl]indoline] | > 200 | 624
7 | O=c1ccc(C(O)c2ccc3c(c2)N(C2CCN(CCc4ccc(F)cc4)CC2)CC3)c[nH]1 (stereo not drawn) [Example 190, 1-[1-(4-fluorophenethyl)piperidin-4-yl]-6-[1-hydroxy-1-(2-pyridon-5-yl)methyl]indoline] | 0.33 | 0.49
8 | O=C(Cc1ccc2c(c1)N(C1CCN(CCc3ccc(F)cc3)CC1)CC2)N1CCCC1 [Example 155, 1-[1-(4-fluorophenethyl)piperidin-4-yl]-6-(tetramethylenecarbamoylmethyl)indoline] | 1.33 | 14.8
9 | FC(F)(F)c1ccc(CCN2CCC(N3CCc4ccccc43)CC2)cc1 [Example 27, 1-[1-(4-trifluoromethylphenethyl)piperidin-4-yl]indoline] | 28.8 | > 200
10 | O=C(c1ccc2c(c1)N(C1CCN(CCc3ccc(F)cc3)CC1)CC2)c1nccs1 [Example 194, 1-[1-(4-fluorophenethyl)piperidin-4-yl]-6-(2-thiazolylcarbonyl)indoline] | > 200 | 4.59
11 | Fc1cccc(CCN2CCC(N3CCc4ccccc43)CC2)c1 [Example 8, 1-[1-(3-fluorophenethyl)piperidin-4-yl]indoline] | 26.9 | 13.5
12 | OCc1ccc(CCN2CCC(N3CCc4ccccc43)CC2)cc1 [Example 23, 1-[1-(4-hydroxymethylphenethyl)piperidin-4-yl]indoline] | 14.6 | 7.4
13 | O=C1CNC(=O)N1Cc1ccc2c(c1)N(C1CCN(CCc3ccc(F)cc3)CC1)CC2 [Example 207, 1-[1-(4-fluorophenethyl)piperidin-4-yl]-6-(2,4-imidazolidinedion-3-yl)methylindoline] | 2.69 | 0.81
14 | Fc1ccc(CCN2CCC(n3ccc4ccccc43)CC2)c(F)n1 [Example 332, 1-[1-(2,6-difluoro-3-pyridylethyl)piperidin-4-yl]indole] | 16.2 | 2.24
15 | CN(C)CCOc1ccc(CCN2CCC(N3CCc4ccccc43)CC2)cc1 [Example 44, 1-{1-[4-(2-dimethylaminoethoxy)phenethyl]piperidin-4-yl}indoline] | 43.7 | 4
16 | O=S(=O)(Nc1ccc2c(c1)N(C1CCN(CCc3ccc(F)cc3)CC1)CC2)c1ccc(F)cc1 [Example 119, 1-[1-(4-fluorophenethyl)piperidin-4-yl]-6-(4-fluorobenzenesulfonylamino)indoline] | 45.5 | 0.2
17 | N#Cc1ccc(CCN2CCC(N3CCc4ccccc43)CC2)cc1 [Example 21, 1-[1-(4-cyanophenethyl)piperidin-4-yl]indoline] | 42.7 | 1.9
18 | CS(=O)(=O)Nc1ccc2c(c1)N(C1CCN(CCc3ccc(F)cc3F)CC1)CC2 [Example 221, 1-[1-(2,4-difluorophenethyl)piperidin-4-yl]-6-methanesulfonylaminoindoline] | 2.4 | 1.9
19 | Fc1ccc(CCN2CCC(N3CCc4ccncc43)CC2)cc1 [Example 264, 1-[1-(4-fluorophenethyl)piperidin-4-yl]-6-azaindoline] | 139 | 11.3
20 | CS(=O)(=O)Oc1ccc2c(c1)N(C1CCN(CCc3ccc(F)cc3)CC1)CC2 [Example 122, 1-[1-(4-fluorophenethyl)piperidin-4-yl]-6-methanesulfonyloxyindoline] | 15.2 | 0.2

Row | SMILES | Ki [1] [nM] | Ki [2] [nM]
21 | CC(=O)NCc1ccc(CCN2CCC(n3ccc4ccccc43)CC2)cc1 [Example 288, 1-[1-(4-acetamidomethylphenethyl)piperidin-4-yl]indole] | 0.1 | 0.2
22 | CC(=O)NCc1ccc2c(c1)N(C1CCN(CCCOc3ccc(F)cc3)CC1)CC2 [Example 232, 1-[1-(4-fluorophenoxypropyl)piperidin-4-yl]-6-acetamidomethylindoline] | 48.2 | 37.6
23 | c1ccc2c(c1)CCN2C1CCN(CCc2cnccn2)CC1 [Example 67, 1-(1-pyrazinylethylpiperidin-4-yl)indoline] | 27.1 | 263
24 | COc1cccc2c1N(C1CCN(CCc3ccc(F)cc3)CC1)CC2 [Example 107, 1-[1-(4-fluorophenethyl)piperidin-4-yl]-7-methoxyindoline] | 1.7 | 7.7
25 | COc1ccc2c(c1)C(N1CCN(CCc3ccc(F)cc3)CC1)CCCC2 (stereo not drawn) [Example 282, 1-(4-fluorophenethyl)-4-(2-methoxybenzocycloheptan-9-yl)piperazine] | 150 | 58.7
26 | Brc1cnn(CCN2CCC(N3CCc4ccccc43)CC2)c1 [Example 68, 1-{1-[2-(4-bromopyrazol-1-yl)ethyl]piperidin-4-yl}indoline] | 39.5 | 47.2
27 | O=C1CCCC(=O)N1Cc1ccc2c(c1)N(C1CCN(CCc3ccc(F)cc3)CC1)CC2 [Example 205, 1-[1-(4-fluorophenethyl)piperidin-4-yl]-6-(glutarimido-1-yl)methylindoline] | 0.12 | 2.76
28 | Brc1ccc(CCN2CCC(N3CCc4ccccc43)CC2)cc1 [Example 4, 1-[1-(4-bromophenethyl)piperidin-4-yl]indoline] | 24.9 | 6
29 | N#CCc1ccc2c(c1)N(C1CCN(CCc3ccc(F)cc3)CC1)CC2 [Example 145, 1-[1-(4-fluorophenethyl)piperidin-4-yl]-6-cyanomethylindoline] | 48.8 | 8.07
30 | Fc1ccc(CCN2CCC(N3CCc4ccc(Cc5ccccn5)cc43)CC2)cc1 [Example 175, 1-[1-(4-fluorophenethyl)piperidin-4-yl]-6-[1-(2-pyridyl)methyl]indoline] | 0.35 | 1.49
31 | OC(c1cncnc1)c1ccc2c(c1)N(C1CCN(CCc3ccc(F)cc3)CC1)CC2 (stereo not drawn) [Example 198, 1-[1-(4-fluorophenethyl)piperidin-4-yl]-6-[1-hydroxy-1-(pyrimidin-5-yl)methyl]indoline] | 2.21 | 13.7
32 | COc1ccc(S(=O)(=O)NCCN2CCC(N3CCc4ccccc43)CC2)cc1 [Example 48, 1-{1-[2-(4-methoxyphenylsulfonylamino)ethyl]piperidin-4-yl}indoline] | 35 | 15.3
33 | Fc1ccc(CCN2CCC(N3CCc4ccc(-c5ccccn5)cc43)CC2)cc1 [Example 171, 1-[1-(4-fluorophenethyl)piperidin-4-yl]-6-(2-pyridyl)indoline] | 178 | 0.39
34 | CCN1CCC(N2CC(CCc3cccc(F)c3)c3ccccc32)CC1 (stereo not drawn) [Example 247, 1-(1-ethylpiperidin-4-yl)-3-(3-fluorophenethyl)indoline] | 52.9 | > 200
35 | Clc1ccc(CCN2CCC(N3CCc4ccccc43)CC2)cc1 [Example 6, 1-[1-(4-chlorophenethyl)piperidin-4-yl]indoline] | 17.4 | 4.5
36 | Oc1ccc2c(c1)N(C1CCN(CCc3ccc(F)cc3)CC1)CC2 [Example 104, 1-[1-(4-fluorophenethyl)piperidin-4-yl]-6-hydroxyindoline] | 6 | 2.4
37 | OC(c1ccc2c(c1)N(C1CCN(CCc3ccc(F)cc3)CC1)CC2)c1cncs1 (stereo not drawn) [Example 196, 1-[1-(4-fluorophenethyl)piperidin-4-yl]-6-[1-(5-thiazolyl)-1-hydroxymethyl]indoline] | 1.17 | 1.67
38 | CS(=O)(=O)c1ccc2c(c1)N(C1CCN(CCc3ccc(F)cc3)CC1)CC2 [Example 128, 1-[1-(4-fluorophenethyl)piperidin-4-yl]-6-methanesulfonylindoline] | 4.7 | 0.34
39 | CC1CC(=C2CCN(CCc3ccc(F)cc3)CC2)c2nccnc21 (stereo not drawn) [Example 265, 5-[1-(4-fluorophenethyl)piperidin-4-ylidene]-7-methyl-5,6-dihydrocyclopentapyrazine] | 34.2 | 25.2
